The results in this text go back to US8012944B2, “Method for treating cancer using IAP antisense oligomer and chemotherapeutic agent” (Pharmascience Inc., priority 2003, dated 2011).

What all share (assay type): cell-based, human
One data set relates to XIAP RNA. In words: XIAP RNA knock-down in T24 cells (TaqMan quantitative PCR). The source says: (§1) We used TaqMan quantitative PCR (described below) to assay for changes in mRNA levels after oligonucleotide treatment. We employed ELISA for determining XIAP protein levels and western blotting for determining HIAP1 protein levels. Transfection conditions were optimized with Lipofectamine plus or Lipofectamine 2000 (Life Technologies, Canada) on T24 bladder carcinoma cells or H460 non-small cell lung carcinoma cells, or lipofectin on SF-295 glioblastoma cells, using a fluorescein-tagged sense oligonucleotide (5′-mGmAGAAGATGACTGGTAAmCmA-3′; SEQ ID NO: 261) from XIAP spanning the start codon as a control. The results were visualized and gauged by epi-fluorescence microscopy. In the case of T24 cells, transfections were further optimized based on the ability of a published oligonucleotide to downregulate survivin expression (Li et al., Nat. Cell Biol. 1:461-466, 1999) (5′-U/TGTGCTATTCTGTGAAU/TU/T-3′ SEQ ID NO: 262). We optimized the transfection conditions based on the TaqMan results of survivin RNA knock-down detected with PCR primers and fluorescent probe, described in detail below. […] We then applied these conditions to screen for XIAP protein knock-down using the oligo library against T24 cells.
(§2) RNA was extracted from cells lysed in RLT buffer (QIAGEN, Valencia, Calif.), and purified using QIAGEN RNeasy columns/kits. Real-time quantitative PCR was performed on a Perkin-Elmer ABI 7700 Prism PCR machine. RNA was reverse transcribed and amplified according to the TaqMan Universal PCR Master Mix protocol of PE Biosystems, using primers and probes designed to specifically recognize XIAP, HIAP1, survivin, or GAPDH. For human survivin, the forward primer was 5′-[…]-3′ (SEQ ID NO: 263), the reverse primer was 5′-GAAAGGAAAGCGCAACCG-3′ (SEQ ID NO: 264), and the probe was 5′-(FAM)[…](TAMRA)-3′ (SEQ ID NO: 265). For human HIAP1, the forward primer was 5′-[…]-3′ (SEQ ID NO: 266), the reverse primer was 5′-[…]-3′ (SEQ ID NO: 267), and the probe was 5′-(FAM)[…](TAMRA)-3′ (SEQ ID NO: 268). For human XIAP, the forward primer was 5′-[…]-3′ (SEQ ID NO: 269), the reverse primer was 5′-[…]-3′ (SEQ ID NO: 270), and the probe was 5′-(FAM)[…](TAMRA)-3′ (SEQ ID NO: 271). For human GAPDH, the forward primer was 5′-GAAGGTGAAGGTCGGAGTC-3′ (SEQ ID NO: 272), the reverse primer was 5′-GAAGATGGTGATGGGATTC-3′ (SEQ ID NO: 273), and the probe was 5′-(JOE)[…](TAMRA)-3′ (SEQ ID NO: 274). FAM is 6-carboxyfluoroscein, JOE is 6-carboxy-4,5-dichloro-2,7-dimethoxyfluoroscein, and TAMRA is 6-carboxy-N,N,N′,N′-tetramethylrhodamine. FAM and JOE are 5′ reporter dyes, while TAMRA is a 3′ quencher dye.
(§3) Relative quantification of gene expression was performed as described in the PE Biosystems manual using GAPDH as an internal standard. The comparative Ct (cycle threshold) method was used for relative quantitation of IAP mRNA levels compared to GAPDH mRNA levels. Briefly, real-time fluorescence measurements were taken at each PCR cycle and the threshold cycle (Ct) value for each sample was calculated by determining the point at which fluorescence exceeded a threshold limit of 30 times the baseline standard deviation. The average baseline value and the baseline SD are calculated starting from the third cycle baseline value and stopping at the baseline value three cycles before the signal starts to exponentially rise. The PCR primers and/or probes for the specific IAPs were designed to span at least one exon-intron boundary separated by 1 kb or more of genomic DNA, to reduce the possibility of amplifying and detecting genomic DNA contamination. The specificity of the signal, and possible contamination from DNA, were verified by treating some RNA samples with either DNase or RNase, prior to performing the reverse transcription and PCR reaction steps.
The XIAP synthetic library of 96 antisense oligonucleotides was first screened for decreases in XIAP protein levels. […]

A further data set has as its system XIAP protein. The data set can be described thus: XIAP protein knock-down in T24 cells (XIAP ELISA, relative to total protein). Conditions: for XIAP protein levels relative to total protein, compared to mock transfection (in words): first screen of the library.
Description: as §1
A standard colorimetric XIAP ELISA assay was performed using an affinity-purified rabbit polyclonal antibody to XIAP as a capture antibody, and was detected with a XIAP monoclonal antibody (MBL, Japan) and a biotinylated anti-mouse Ig antibody and horseradish peroxidase-conjugated streptavidin and TMB substrate. Alternatively, a polyclonal XIAP or HIAP1 antibody may be used to measure XIAP or HIAP1 protein levels, respectively.
The XIAP synthetic library of 96 antisense oligonucleotides was first screened for decreases in XIAP protein levels. Specifically, T24 cells (1.5×10^4 cells/well) were seeded in wells of a 96-well plate on day 1, and were cultured in antibiotic-free McCoy's medium for 24 hours. On day 2, the cells were transfected with XIAP antisense oligonucleotides as described above (oligonucleotides are labeled according to their plated position, i.e., A1 to H12, and include two repeats, A13 and B13 that contain lyophilized DNA pellets that stuck to the sealing membrane). Briefly, the nucleobase oligomers were diluted in 10 μl/well of serum-free, antibiotic-free McCoy's medium and then PLUS reagent was added. Lipofectamine was diluted in 10 μl/well of serum-free, antibiotic-free McCoy's medium, and both mixes were incubated for 15 minutes at room temperature. The mixes were then combined and incubated for 15 minutes at room temperature.
In the meantime, the complete medium was removed from the cells and 50 μl/well of serum-free, antibiotic-free medium was added to the cells. The transfection mixes were added to the well, and the cells were incubated for three hours. Then 30 μl/well of serum-free, antibiotic-free medium and 100 μl/well of antibiotic-free complete medium, containing 20% fetal bovine serum were added to each well.
At day 3, XIAP RNA levels were measured using quantitative real-time PCR techniques, as described above. At day 4, XIAP protein levels were measured by ELISA (FIGS. 1A, 1C, 1E, 1G, 1I, and 1K), and total cellular protein was measured biochemically (FIGS. 1B, 1D, 1F, 1H, 1J, and 1L; used to normalize the XIAP protein levels). The results were compared to a mock transfection sample (treated with the transfection agent but no oligonucleotide DNA was added, and then processed as for the other samples). Time course experiments determined that the optimal time for protein knock-down to be around 12 to 24 hours. […]

The test system of another data set is HIAP1 mRNA. In words: HIAP1 mRNA in SF295 cells, basal conditions (TaqMan). Further details: decrease of HIAP1 mRNA compared to mock or scrambled survivin control: concentration or dose not given beside the values. The settings on record: for HIAP1 mRNA levels (in words): SF295 cells (FIG. 21). On the procedure:
as §2, §3
A library of 15 HIAP1 antisense nucleobase oligomers as oligonucleotides was screened for protein knock-down by western blot analysis and for RNA knock-down by TaqMan, using the primers and probes described in Example 3, above, under two different conditions. HIAP1 RNA levels may be detected using standard Northern blot analyses or RT-PCR techniques. The antisense oligonucleotides were administered to cells under basal conditions or under cycloheximide-induction conditions (24 hour treatment with sub-toxic doses). Cycloheximide (CHX) can lead to a 10- to 200-fold induction of HIAP1 mRNA depending on the cell line treated. […] This effect of CHX is via two distinct mechanisms of action. First, CHX activates NFkB, a known transcriptional inducer of HIAP1, by blocking the de novo synthesis of a labile protein, IkB, which is an inhibitor of NFkB. This effect is mimicked by puromycin, another protein synthesis inhibitor, and by TNF-alpha, which induces a signaling cascade leading to the phosphorylation, ubiquination, and degradation of IkB.
SF295 glioblastoma cells were transfected with lipofectin and oligonucleotide (scrambled survivin, no oligonucleotide, antisense APO 1 to APO 15) or left untreated. […]

Data set [1] deals with XIAP mRNA. In words: XIAP mRNA knock-down in H460 cells (real-time RT-PCR / TaqMan). As for the experimental part: as §2, §3
A portion of the 96 nucleobase oligomers depicted in Table 2 were rescreened for their ability to knock-down XIAP mRNA in NCI-H460 cells at […] post-transfection.
One day prior to transfection, H460 cells were plated in 6- or 96-well tissue culture plates. Phosphorothioate antisense oligonucleotides were delivered into cells with Lipofectamine 2000 (Life Technologies) in the form of liposome-oligonucleotide complexes. Following a 4.5 or 6 h transfection, the transfection medium was replaced with RPMI medium containing 10% FBS, and the cells incubated for another 24 or 48 h.
Total RNA from H460 cells treated with liposome-oligonucleotide complexes for 6 hours was immediately isolated using RNeasy mini spin columns and DNase treatment (QIAGEN, Valencia, Calif.). Specific XIAP mRNA was measured using a real-time quantitative RT-PCR method. […]

Data set [2] has as its system XIAP mRNA. Described as above. The settings on record: 2 × 2 MBO; NCI-H460 cells, 9 hours post-transfection; relative level (mock control 1.01).

Oligonucleotides are written 5' to 3', each unit as a sugar letter and its base; * is a phosphorothioate linkage, no mark a phosphodiester; rarer units and linkages stand in square brackets, end groups in braces. Plain capitals give the bases only. d = 2'-deoxy (DNA); m = 2'-O-methyl

As to “ACCATTCTGGATACCAGAA (mA*mCdCdAdTdTdCdTdGdGdAdTdAdCdCdAdGmA*mA) [Code C5]”, the “XIAP down-regulation T24 RNA” value in the data set with XIAP RNA was 71%. Besides, in the data set on XIAP protein, the “XIAP down-regulation T24 protein” value was 54% and the “XIAP protein levels relative to total protein, compared to mock transfection (in words)” value is given as “some decrease”.

As to “ACCCATGCACAAAACTACC (chemistry not given here) [APO 4]”, the “HIAP1 mRNA levels (in words)” value with HIAP1 mRNA is reported as “stress-induced increase in HIAP1 mRNA”.

For the sequence “ACCCTGGATACCATTTAGC (antisense; chemistry not fully specified) [Code F8]”, the “XIAP protein levels relative to total protein, compared to mock transfection (in words)” value in the data set with XIAP protein is listed as “some decrease”. In addition, in the data set with XIAP mRNA [1], the “XIAP down-regulation H460 RNA” value amounted to 47%. Also, in the data set with XIAP mRNA [2], the “XIAP RNA” value was 0.62. In the case of “AGTTTTCAACTTTGTACTG (antisense; sugars from the 5' end m2 d15 m2, backbone and T or U not given here; further chemistry not fully specified) [Code D5]”, in the data set with XIAP RNA, the “XIAP down-regulation T24 RNA” value is 39%. Besides, in the data set with XIAP protein, the “XIAP down-regulation T24 protein” value worked out at 33% and the “XIAP protein levels relative to total protein, compared to mock transfection (in words)” value is listed as “some decrease”. For “CCTGTCCTTTAATTCTTAT (chemistry not given here) [APO 13]”, in the data set with HIAP1 mRNA, the “HIAP1 mRNA levels (in words)” value is given as “stress-induced increase in HIAP1 mRNA”. Still for that read-out and setting: the entry for “GCATTTTCGTTATTCATTG (chemistry not given here) [APO 11]” is “stress-induced increase in HIAP1 mRNA”; for “GGCTGCAATATTTCCTTTT (chemistry not given here) [APO 14]” it is “stress-induced increase in HIAP1 mRNA”. In the case of “TGAGAGCCCTTTTTTTGTT (antisense; sugars from the 5' end m2 d15 m2, backbone and T or U not given here; further chemistry not fully specified) [Code D1]”, the “XIAP down-regulation H460 RNA” value in the data set on XIAP mRNA [1] is 75%. Moreover, the “XIAP RNA” value in the data set on XIAP mRNA [2] was 0.25. For “TGTTCTAACAGATATTTGC (antisense; sugars from the 5' end m2 d15 m2, backbone, methylation of C and T or U not given here; further chemistry not fully specified) [Code G8]” the same measures were 49% and 0.64.

Regarding “TTACCACATCATTCAAGTC (antisense; sugars from the 5' end m2 d15 m2, backbone and T or U not given here; further chemistry not fully specified) [Code F2]”, the “XIAP down-regulation H460 RNA” value with XIAP mRNA [1] worked out at 34%. For the same sequence, the “XIAP RNA” value in the data set on XIAP mRNA [2] was 0.64. For “TTAGCAAAATATGTTTTAA (antisense; sugars from the 5' end m2 d15 m2, backbone and T or U not given here; further chemistry not fully specified) [Code G1]” the same measures were 33% and 0.67. On to “TTCAACATGGAGATTCTAA (chemistry not given here) [APO 9]”, for which the “decrease of HIAP1 mRNA compared to mock or scrambled survivin control” value in the data set on HIAP1 mRNA (SF295 cells, six hours after transfection) was about 50%. Take “TTCAGTTTTCCACCACAAC (antisense; sugars from the 5' end m2 d15 m2, backbone, methylation of C and T or U not given here; further chemistry not fully specified) [Code H6]”: the “XIAP down-regulation H460 RNA” value with XIAP mRNA [1] worked out at 68%. Also, the “XIAP RNA” value in the data set with XIAP mRNA [2] amounted to 0.31. The like results for “TTGTAGACTGCGTGGCACT (antisense; sugars from the 5' end m2 d15 m2, backbone and T or U not given here; further chemistry not fully specified) [Code B5]” were, in that order, 61% and 0.38.

For the sequence “TTTCTCAGTAGTTCTTACC (antisense; sugars from the 5' end m2 d15 m2, backbone, methylation of C and T or U not given here; further chemistry not fully specified) [Code D9]”, the “XIAP down-regulation H460 RNA” value with XIAP mRNA [1] is given as 39%. In addition, in the data set on XIAP mRNA [2], the “XIAP RNA” value was determined as 0.73.
